# ChEMBL document CHEMBL3865822, “New palbociclib analogues modified at the terminal piperazine ring and their anticancer activities” (Eur J Med Chem, 2016)
# pIC50: −log10 of the molar value. Active and inactive are the calls of the source. No cut-off for these calls is given here.
# Key:
# [1] = Cytotoxicity against human MCF7 cells assessed as reduction in cell viability after 48 hrs by CCK8 assay; format: functional, cell-based; settings: MCF7, 48 h
# [2] = molecular target: Cyclin-dependent kinase 6 (Homo sapiens, UniProt Q00534); assay: Inhibition of CDK6 (unknown origin) using histone H1 as substrate after 10 mins in presence of [gamma32P]ATP
# Cyclin-dependent kinase 6, sequence (Q00534 whole entry): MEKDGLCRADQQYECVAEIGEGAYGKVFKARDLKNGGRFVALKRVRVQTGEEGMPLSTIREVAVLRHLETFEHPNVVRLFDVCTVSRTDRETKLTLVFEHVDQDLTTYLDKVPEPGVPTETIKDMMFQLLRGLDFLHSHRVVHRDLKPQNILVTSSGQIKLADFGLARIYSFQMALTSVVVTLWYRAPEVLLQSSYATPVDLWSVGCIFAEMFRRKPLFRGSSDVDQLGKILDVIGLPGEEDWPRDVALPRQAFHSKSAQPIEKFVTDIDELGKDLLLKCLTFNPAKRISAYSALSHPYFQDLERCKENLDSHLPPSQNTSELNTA
# [3] = Cytotoxicity against human MDA-MB-231 cells assessed as reduction in cell viability after 48 hrs by CCK8 assay; format: functional, cell-based; settings: MDA-MB-231, 48 h
# [4] = molecular target: Cyclin-dependent kinase 4 (Homo sapiens, UniProt P11802); assay: Inhibition of CDK4 (unknown origin) using histone H1 as substrate after 10 mins in presence of [gamma32P]ATP
# Cyclin-dependent kinase 4, sequence (P11802 whole entry): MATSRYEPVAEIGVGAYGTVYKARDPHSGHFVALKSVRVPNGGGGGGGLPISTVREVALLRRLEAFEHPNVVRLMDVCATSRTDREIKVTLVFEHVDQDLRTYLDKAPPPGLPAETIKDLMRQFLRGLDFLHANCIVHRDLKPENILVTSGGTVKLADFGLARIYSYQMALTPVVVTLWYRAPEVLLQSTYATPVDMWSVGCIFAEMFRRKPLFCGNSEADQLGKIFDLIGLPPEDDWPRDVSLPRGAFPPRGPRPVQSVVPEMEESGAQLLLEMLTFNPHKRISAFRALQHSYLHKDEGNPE
# [5] = Cytotoxicity against human MDA-MB-453 cells assessed as reduction in cell viability after 48 hrs by CCK8 assay; format: functional, cell-based; settings: MDA-MB-453, 48 h
# MCF7 [6] = assay: Antitumor activity against human […] human MCF7 cells xenografted in RNU rat assessed as tumor growth inhibition at 100 mg/kg/day, ig administered for 14 days measured on day 15; format: functional, organism-based
# Rattus norvegicus [7] = assay: Toxicity in RNU rat xenografted with human MCF7 cells assessed as reduction in body weight at 122.4 mg/kg/day, ig administered for 14 days measured daily during compound dosing; format: organism-based; settings: in vivo, po, 336 h
# MCF7 [8] = assay: Antitumor activity against […] human MCF7 cells xenografted in RNU rat assessed as tumor growth inhibition at 122.4 mg/kg/day, ig administered for 14 days measured on day 15; format: functional, organism-based
# MCF7 [9] = assay: Antitumor activity against […] human MCF7 cells xenografted in RNU rat assessed as tumor growth inhibition at 128.8 mg/kg/day, ig administered for 14 days measured on day 15; format: functional, organism-based
# Rattus norvegicus [10] = assay: Toxicity in RNU rat xenografted with human MCF7 cells assessed as reduction in body weight at 128.8 mg/kg/day, ig administered for 14 days measured daily during compound dosing; format: organism-based; settings: in vivo, po, 336 h
smiles,measurement,setting,value
CCOC(=O)CN1CCN(c2ccc(Nc3ncc4c(C)c(C(C)=O)c(=O)n(C5CCCC5)c4n3)nc2)CC1,pIC50,[1],< 5.70
CC(=O)c1c(C)c2cnc(Nc3ccc(N4CCN(CCO)CC4)cn3)nc2n(C2CCCC2)c1=O,pIC50,[1],6.16
CCCC(=O)OCN1CCN(c2ccc(Nc3ncc4c(C)c(C(C)=O)c(=O)n(C5CCCC5)c4n3)nc2)CC1,pIC50,[1],< 5.70
CCCCOC(=O)N1CCN(c2ccc(Nc3ncc4c(C)c(C(C)=O)c(=O)n(C5CCCC5)c4n3)nc2)CC1,pIC50,[1],< 5.70
CCOC(=O)CCN1CCN(c2ccc(Nc3ncc4c(C)c(C(C)=O)c(=O)n(C5CCCC5)c4n3)nc2)CC1,pIC50,[1],< 5.70
CCCOC(=O)N1CCN(c2ccc(Nc3ncc4c(C)c(C(C)=O)c(=O)n(C5CCCC5)c4n3)nc2)CC1,pIC50,[1],< 5.70
CC(=O)c1c(C)c2cnc(Nc3ccc(N4CCN(C(C)=O)CC4)cn3)nc2n(C2CCCC2)c1=O,pIC50,[1],< 5.70
CC(=O)c1c(C)c2cnc(Nc3ccc(N4CCN(CCC(=O)O)CC4)cn3)nc2n(C2CCCC2)c1=O,pIC50,[1],< 5.70
COC(=O)N1CCN(c2ccc(Nc3ncc4c(C)c(C(C)=O)c(=O)n(C5CCCC5)c4n3)nc2)CC1,pIC50,[1],< 5.70
COCCN1CCN(c2ccc(Nc3ncc4c(C)c(C(C)=O)c(=O)n(C5CCCC5)c4n3)nc2)CC1,pIC50,[1],6.05
CC(=O)OCOC(=O)N1CCN(c2ccc(Nc3ncc4c(C)c(C(C)=O)c(=O)n(C5CCCC5)c4n3)nc2)CC1,pIC50,[2],7.55
same,pIC50,[1],6.43
same,pIC50,[3],< 6.00
same,pIC50,[4],7.49
same,pIC50,[5],6.37
CCN1CCN(c2ccc(Nc3ncc4c(C)c(C(C)=O)c(=O)n(C5CCCC5)c4n3)nc2)CC1,pIC50,[2],7.47
same,pIC50,[1],6.27
same,pIC50,[3],< 6.00
same,pIC50,[4],7.60
same,pIC50,[5],6.31
CC(=O)c1c(C)c2cnc(Nc3ccc(N4CCNCC4)cn3)nc2n(C2CCCC2)c1=O [PALBOCICLIB],pIC50,[1],6.62
same,pIC50,[3],6.24
same,TGI,MCF7 [6],Active
same,pIC50,[5],6.86
CC(=O)c1c(C)c2cnc(Nc3ccc(N4CCN(C(=O)CC#N)CC4)cn3)nc2n(C2CCCC2)c1=O,pIC50,[1],5.82
CC(=O)c1c(C)c2cnc(Nc3ccc(N4CCN(C(=O)CNCCN)CC4)cn3)nc2n(C2CCCC2)c1=O,pIC50,[2],7.64
same,pIC50,[1],6.65
same,Activity,Rattus norvegicus [7],Non-Toxic
same,pIC50,[3],6.36
same,pIC50,[4],7.72
same,pIC50,[5],6.59
same,TGI,MCF7 [8],Active
CCCCCOC(=O)N1CCN(c2ccc(Nc3ncc4c(C)c(C(C)=O)c(=O)n(C5CCCC5)c4n3)nc2)CC1,pIC50,[1],< 5.70
CC(=O)c1c(C)c2cnc(Nc3ccc(N4CCN(C(=O)OCC(C)C)CC4)cn3)nc2n(C2CCCC2)c1=O,pIC50,[1],< 5.70
CC(=O)c1c(C)c2cnc(Nc3ccc(N4CCN(C(=O)CCC(=O)O)CC4)cn3)nc2n(C2CCCC2)c1=O,pIC50,[1],< 5.70
COCCCNCC(=O)N1CCN(c2ccc(Nc3ncc4c(C)c(C(C)=O)c(=O)n(C5CCCC5)c4n3)nc2)CC1,pIC50,[2],7.74
same,TGI,MCF7 [9],Active
same,pIC50,[1],6.98
same,Activity,Rattus norvegicus [10],Non-Toxic
same,pIC50,[3],6.25
same,pIC50,[4],7.89
same,pIC50,[5],7.03
CC(=O)c1c(C)c2cnc(Nc3ccc(N4CCN(C(=O)OC(C)C)CC4)cn3)nc2n(C2CCCC2)c1=O,pIC50,[1],< 5.70
